Measurements reported in ChEMBL document CHEMBL3393054, “Development of 2-aminooxazoline 3-azaxanthenes as orally efficacious β-secretase inhibitors for the potential treatment of Alzheimer's disease” (Bioorg Med Chem Lett, 2015).

Columns and labels:
Beta-secretase 1 [1] = biological target: T1, Beta-secretase 1 (Homo sapiens, UniProt P56817)
Beta-secretase 1 [2] = biological target: T1, Beta-secretase 1; remark: listed apart in the source
Cathepsin D = Cathepsin D (Homo sapiens, UniProt P07339)
Rattus norvegicus [3] = organism: Rattus norvegicus; conditions: dose 10 mg/kg; route oral
Rattus norvegicus [4] = organism: Rattus norvegicus; conditions: dose 10 mg/kg; route oral; remark: listed apart in the source
Rattus norvegicus [5] = organism: Rattus norvegicus; assay: animal or person; conditions: Sprague-Dawley, Cerebrospinal fluid, po, 4 h, read-out: INH

Cathepsin D, sequence (P07339 65-162 limits assumed): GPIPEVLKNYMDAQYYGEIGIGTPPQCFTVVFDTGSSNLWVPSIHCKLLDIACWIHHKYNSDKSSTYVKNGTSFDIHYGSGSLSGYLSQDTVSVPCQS
Cathepsin D, sequence (P07339 169-412 limits assumed): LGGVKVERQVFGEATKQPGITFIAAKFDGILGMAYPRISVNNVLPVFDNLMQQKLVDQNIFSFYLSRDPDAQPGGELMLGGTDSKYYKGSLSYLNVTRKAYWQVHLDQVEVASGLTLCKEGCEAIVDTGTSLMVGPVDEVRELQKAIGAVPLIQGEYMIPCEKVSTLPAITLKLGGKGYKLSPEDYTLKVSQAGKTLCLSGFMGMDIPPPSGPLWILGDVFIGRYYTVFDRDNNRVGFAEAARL
T1 sequence (P56817 whole entry): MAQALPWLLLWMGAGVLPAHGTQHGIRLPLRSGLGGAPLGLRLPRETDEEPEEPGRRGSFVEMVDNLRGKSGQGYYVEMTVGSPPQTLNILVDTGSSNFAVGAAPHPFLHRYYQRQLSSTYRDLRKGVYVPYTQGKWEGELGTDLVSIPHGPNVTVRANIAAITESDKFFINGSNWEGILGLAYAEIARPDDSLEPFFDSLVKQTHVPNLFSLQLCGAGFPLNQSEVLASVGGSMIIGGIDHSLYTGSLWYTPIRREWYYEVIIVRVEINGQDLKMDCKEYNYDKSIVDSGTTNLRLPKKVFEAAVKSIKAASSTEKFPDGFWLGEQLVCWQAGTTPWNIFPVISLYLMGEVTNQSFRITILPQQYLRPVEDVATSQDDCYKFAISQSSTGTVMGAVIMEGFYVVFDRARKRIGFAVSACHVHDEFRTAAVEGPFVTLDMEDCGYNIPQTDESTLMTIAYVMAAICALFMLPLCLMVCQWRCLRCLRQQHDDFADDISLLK

Row | Compound | IC50 (Beta-secretase 1 [1]) [nM] | IC50 (Beta-secretase 1 [2]) [nM] | IC50 (Cathepsin D) [nM] | fEC50 (Rattus norvegicus [3]) [nM] | fEC50 (Rattus norvegicus [4]) [nM] | inhibition in vivo at 10 mg/kg (Rattus norvegicus [5]) [%]
1 | NC1=N[C@@]2(CO1)c1cc(-c3cccnc3F)ccc1Oc1cnc(C3=CCOCC3)cc12 | 4.2 | 0.7 | 640 | 27 | 60 | –
2 | CC1(C)C=C(c2cc3c(cn2)Oc2ccc(-c4cccnc4F)cc2[C@@]32COC(N)=N2)CCO1 | 7.4 | 0.9 | 710 | 34 | 57 | 76
3 | NC1=N[C@@]2(CO1)c1cc(-c3cccnc3F)ccc1Oc1cnc(C3=CCCOC3)cc12 | 7.9 | 0.5 | 1080 | 16 | 31 | –
4 | NC1=N[C@@]2(CO1)c1cc(-c3cccnc3F)ccc1Oc1cnc(C3CCOCC3)cc12 | 49.5 | 7.1 | 3390 | 339 | 659 | –
5 | NC1=N[C@@]2(CO1)c1cc(-c3cccnc3F)ccc1Oc1cnc(C3CCCOC3)cc12 (some centres undefined) | 123 | 11.3 | 5800 | – | – | –
6 | NC1=N[C@@]2(CO1)c1cc(-c3cccnc3F)ccc1Oc1cnc([C@@H]3CCCCO3)cc12 | – | – | 11600 | – | – | –
7 | NC1=N[C@@]2(CO1)c1cc(-c3cccnc3F)ccc1Oc1cnc([C@H]3CCCCO3)cc12 | – | – | 1040 | – | – | –
8 | NC1=N[C@@]2(CO1)c1cc(-c3cccnc3F)ccc1Oc1cnc(N3CCOCC3)cc12 | 20.5 | – | 600 | – | – | –
9 | CC1(C)CN(c2cc3c(cn2)Oc2ccc(-c4cccnc4F)cc2[C@@]32COC(N)=N2)CCO1 | 22 | 4 | 530 | – | – | –
10 | NC1=N[C@@]2(CO1)c1cc(-c3cccnc3F)ccc1Oc1cnc(N3CCC(F)(F)CC3)cc12 | 8.7 | – | 140 | – | 54 | –
11 | NC1=N[C@@]2(CO1)c1cc(-c3cccnc3F)ccc1Oc1cnc(N3CCC(F)(F)C3)cc12 | 4.1 | – | 440 | 32 | 38 | –
12 | NC1=N[C@@]2(CO1)c1cc(-c3cccnc3F)ccc1Oc1cnc(N3CC[C@H](F)C3)cc12 | – | – | 2220 | – | – | –
13 | NC1=N[C@@]2(CO1)c1cc(-c3cccnc3F)ccc1Oc1cnc(N3CC[C@@H](F)C3)cc12 | – | – | 680 | – | – | –
14 | NC1=N[C@@]2(CO1)c1cc(-c3cccnc3F)ccc1Oc1cnc(-c3ccccc3)cc12 | 25.3 | 1.4 | 650 | – | – | –
15 | NC1=N[C@@]2(CO1)c1cc(-c3cccnc3F)ccc1Oc1cnc(-c3ccccn3)cc12 | 26.6 | 3.8 | 4100 | – | – | –
16 | NC1=N[C@@]2(CO1)c1cc(-c3cccnc3F)ccc1Oc1cnc(-c3ccncc3)cc12 | 16 | 2.5 | 3190 | 365 | 745 | 56
17 | Cc1cc(-c2cc3c(cn2)Oc2ccc(-c4cccnc4F)cc2[C@@]32COC(N)=N2)ccn1 | 15 | 2.4 | 3870 | 30 | 62 | 60
18 | NC1=N[C@]2(CO1)c1cc(C3=CCOCC3)ccc1Oc1ccc(-c3cccnc3F)cc12 | 18.5 | – | – | – | – | –
